Values quoted from earlier work in patent publication US20040167355A1, “Hydrocarbon products and methods of preparing hydrocarbon products” (priority 2003, published 2004).

Assays:
[1] = 1% solution of the sodium salt of the surfactant
[2] = 25° C.; 450 ppm surfactant, 420 ppm hardness (3:1 Ca++:Mg++)

Row | SMILES | Krafft temperature [1] [°C] | loss of surfactant in hard water [2] [%]
1 | CCCCCCCCCCC(C)c1ccc(S(=O)(=O)O)cc1 (stereo not shown) [2-Phenyl Dodecyl Benzene Sulfonate] | 36 | 100
2 | CCCCCCCC(C)CCC(C)c1ccc(S(=O)(=O)O)cc1 (stereo not shown) [5-Methyl-2-Phenyl Dodecyl Benzene Sulfonate] | 16 | 5
